Molecular target: human PCSK9 (Homo sapiens, UniProt Q8NBP7)
Test: PCSK9 ligand binding TR-FRET assay (interference with binding of human PCSK9 to human LDLR)
Settings: for Max % inhibition: PCSK9 FRET assay, efficacy (Amax), 100% = 1 uM unlabeled human PCSK9, 0% = DMSO; for IC50: TR-FRET, human PCSK9 Alexa Fluor 647 / human LDLR extracellular domain-Europium Kryptate, read-out: PCSK9 FRET Assay IC50
Method in brief: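 Threefold compound dilutions were pre-incubated 30 min with PCSK9, after which 4 nM Europium Kryptate-tagged human LDLR ectodomain was added for a further 2 h.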

Sequence of human PCSK9 (Q8NBP7 153-692): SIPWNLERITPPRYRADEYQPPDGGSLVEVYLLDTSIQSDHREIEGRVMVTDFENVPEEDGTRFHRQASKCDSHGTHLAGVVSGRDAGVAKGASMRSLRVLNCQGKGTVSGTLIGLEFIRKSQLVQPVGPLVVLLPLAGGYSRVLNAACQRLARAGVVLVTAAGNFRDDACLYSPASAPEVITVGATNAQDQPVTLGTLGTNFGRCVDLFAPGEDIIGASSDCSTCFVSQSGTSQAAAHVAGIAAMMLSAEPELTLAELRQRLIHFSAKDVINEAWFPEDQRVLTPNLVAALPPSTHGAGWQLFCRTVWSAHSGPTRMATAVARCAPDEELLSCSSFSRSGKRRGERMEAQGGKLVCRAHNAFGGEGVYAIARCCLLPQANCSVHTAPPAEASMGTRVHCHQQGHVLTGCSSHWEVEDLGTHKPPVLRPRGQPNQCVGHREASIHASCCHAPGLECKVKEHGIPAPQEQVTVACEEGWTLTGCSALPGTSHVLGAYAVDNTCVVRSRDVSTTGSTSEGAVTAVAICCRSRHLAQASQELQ
Sequence of human PCSK9 (Q8NBP7 31-152 partner limits assumed): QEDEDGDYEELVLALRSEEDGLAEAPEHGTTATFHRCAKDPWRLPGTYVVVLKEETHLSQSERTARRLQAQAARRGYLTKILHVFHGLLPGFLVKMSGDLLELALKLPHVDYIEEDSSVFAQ

| Max % inhibition [%] | IC50 [nM] | Compound |
| --- | --- | --- |
| 100.34 | 7 | COC[C@@H]1NC(=O)[C@H](C)N(Cc2ccc(Cl)cc2Oc2ccc(-c3cnc(CN(C)C)n3C)cc2)C(=O)C[C@@H](Cc2ccccc2)C(=O)N(C)C2(CC2)CNC(=O)C[C@H](Cc2ccc(Cl)cc2)N(C)C1=O [Compound 144, (6R,10S,13S,16S)-6-benzyl-9-(4-chloro-2-(4-(2-((dimethylamino)methyl)-1-methyl-1H-imidazol-5-yl)phenoxy)benzyl)-16-(4-chlorobenzyl)-13-(methoxymethyl)-4,10,15-trimethyl-4,9,12,15,19-pentaazaspiro[2.17]icosane-5,8,11,14,18-pentaone] |
| 102.40 | 1.1 | COC[C@@H]1NC(=O)[C@H](C)N(Cc2ccc(Cl)cc2Oc2ccc(-c3cnc(CN(C)C)n3C)cc2)C(=O)C[C@@H](Cc2ccccc2)C(=O)N(C)[C@H]2CCCC[C@@H]2NC(=O)C[C@H](Cc2ccc(Cl)cc2)N(C)C1=O [Compound 145, (4S,7S,10S,14R,16aS,20aS)-14-benzyl-11-(4-chloro-2-(4-(2-((dimethylamino)methyl)-1-methyl-1H-imidazol-5-yl)phenoxy)benzyl)-4-(4-chlorobenzyl)-7-(methoxymethyl)-5,10,16-trimethylhexadecahydrobenzo[l][1,4,7,11,14]pentaazacyclooctadecine-2,6,9,12,15(3H)-pentaone] |
| 51.67 | 3.1 | Cc1c(CN2CCCC2)cncc1-c1ccc(Oc2cc(Cl)ccc2CN2C(=O)C[C@@H](Cc3ccccc3)C(=O)N(C)[C@@H](C)CNC(=O)C[C@H](Cc3ccc(Cl)cc3)N(C)C(=O)[C@H](CO)NC(=O)[C@@H]2C)cc1 [Compound 146, (2S,5S,8S,13S,16R)-16-benzyl-1-(4-chloro-2-(4-(4-methyl-5-(pyrrolidin-1-ylmethyl)pyridin-3-yl)phenoxy)benzyl)-8-(4-chlorobenzyl)-5-(hydroxymethyl)-2,7,13,14-tetramethyl-1,4,7,11,14-pentaazacyclooctadecane-3,6,10,15,18-pentaone] |
| 94.67 | 29.2 | C[C@H]1CNC(=O)C[C@H](Cc2ccc(Cl)cc2)N(C)C(=O)[C@H](Cc2nnn[nH]2)NC(=O)[C@H](C)N(Cc2ccc(Cl)cc2Oc2ccc(-c3cnc(CN(C)C)n3C)cc2)C(=O)C[C@@H](Cc2ccccc2)C(=O)N1C [Compound 148, (2S,5S,8S,13S,16R)-5-((1H-tetrazol-5-yl)methyl)-16-benzyl-1-(4-chloro-2-(4-(2-((dimethylamino)methyl)-1-methyl-1H-imidazol-5-yl)phenoxy)benzyl)-8-(4-chlorobenzyl)-2,7,13,14-tetramethyl-1,4,7,11,14-pentaazacyclooctadecane-3,6,10,15,18-pentaone] |
| 72.43 | 18.7 | CCOC(=O)c1ncn(-c2ccc(Oc3cc(Cl)ccc3CN3C(=O)C[C@@H](Cc4ccccc4)C(=O)N(C)[C@@H](C)CNC(=O)C[C@H](Cc4ccc(Cl)cc4)N(C)C(=O)[C@H](COC)NC(=O)[C@@H]3C)cc2)c1C [Compound 149, ethyl 1-(4-(2-(((2S,5S,8S,13S,16R)-16-benzyl-8-(4-chlorobenzyl)-5-(methoxymethyl)-2,7,13,14-tetramethyl-3,6,10,15,18-pentaoxo-1,4,7,11,14-pentaazacyclooctadecan-1-yl)methyl)-5-chlorophenoxy)phenyl)-5-methyl-1H-imidazole-4-carboxylate] |
| 104.13 | 0.8 | CCc1ccc(CN2C(=O)C[C@@H](Cc3ccccc3)C(=O)N(C)[C@@H](C)CNC(=O)C[C@H](Cc3ccc(Cl)cc3)N(C)C(=O)[C@H](COC)NC(=O)[C@@H]2C)c(Oc2ccc(-c3cnc(CN4CCCC4)n3C)cc2)c1.Cl [Compound 150, (2S,5S,8S,13S,16R)-16-benzyl-8-(4-chlorobenzyl)-1-(4-ethyl-2-(4-(1-methyl-2-(pyrrolidin-1-ylmethyl)-1H-imidazol-5-yl)phenoxy)benzyl)-5-(methoxymethyl)-2,7,13,14-tetramethyl-1,4,7,11,14-pentaazacyclooctadecane-3,6,10,15,18-pentaone hydrochloride] |
